# Test results as given in patent US11884661B2, “3-substituted propionic acids as αV integrin inhibitors” (BRISTOL-MYERS SQUIBB COMPANY, priority 2016, dated 2024).
# Molecular target: T1, human αVβ6 (Homo sapiens, UniProt P06756+P18564)
# T1 construct: purchased R & D systems 3817-AV
# Assay: human αVβ6 HTRF binding assay
# Conditions: recombinant human αVβ6 integrin, FITC-conjugated fibronectin
# In short: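 Biotinylated recombinant αVβ6 (1.25 nM final) incubated with FITC-fibronectin (5 nM) 1 h at RT, then streptavidin-terbium (0.625 nM) added and incubated overnight at RT in the dark before HTRF read. Buffer: 20 mM Tris pH 7.4, 1 mM MgCl2, 1 mM MnCl2, 0.01% Tween 20, 0.01% BSA.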
# T1 sequence (P06756 31-992 limits assumed): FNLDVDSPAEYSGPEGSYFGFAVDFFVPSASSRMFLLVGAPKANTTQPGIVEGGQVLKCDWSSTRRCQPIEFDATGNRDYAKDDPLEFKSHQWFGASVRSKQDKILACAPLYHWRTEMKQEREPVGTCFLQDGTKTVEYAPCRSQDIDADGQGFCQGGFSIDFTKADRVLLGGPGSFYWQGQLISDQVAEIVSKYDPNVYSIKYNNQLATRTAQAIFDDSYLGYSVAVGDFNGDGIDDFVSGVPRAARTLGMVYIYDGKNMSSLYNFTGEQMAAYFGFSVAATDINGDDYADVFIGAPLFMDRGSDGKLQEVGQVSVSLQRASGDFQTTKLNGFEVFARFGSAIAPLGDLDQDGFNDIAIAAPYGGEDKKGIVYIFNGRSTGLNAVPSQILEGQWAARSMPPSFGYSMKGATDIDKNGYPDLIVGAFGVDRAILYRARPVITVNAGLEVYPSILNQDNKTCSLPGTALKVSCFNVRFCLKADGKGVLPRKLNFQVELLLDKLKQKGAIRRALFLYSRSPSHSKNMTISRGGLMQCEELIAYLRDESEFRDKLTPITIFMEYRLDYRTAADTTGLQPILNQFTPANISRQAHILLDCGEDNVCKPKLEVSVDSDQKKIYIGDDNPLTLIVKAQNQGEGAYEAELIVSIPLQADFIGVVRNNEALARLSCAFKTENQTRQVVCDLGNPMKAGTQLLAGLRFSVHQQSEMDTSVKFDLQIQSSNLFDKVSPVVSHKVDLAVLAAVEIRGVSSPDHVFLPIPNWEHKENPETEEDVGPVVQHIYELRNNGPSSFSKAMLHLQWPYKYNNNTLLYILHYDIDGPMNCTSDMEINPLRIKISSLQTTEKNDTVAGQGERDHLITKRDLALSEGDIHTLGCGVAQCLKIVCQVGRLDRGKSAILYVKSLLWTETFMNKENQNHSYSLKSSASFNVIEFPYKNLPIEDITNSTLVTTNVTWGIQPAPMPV
# T1 sequence (P18564 22-707 limits assumed): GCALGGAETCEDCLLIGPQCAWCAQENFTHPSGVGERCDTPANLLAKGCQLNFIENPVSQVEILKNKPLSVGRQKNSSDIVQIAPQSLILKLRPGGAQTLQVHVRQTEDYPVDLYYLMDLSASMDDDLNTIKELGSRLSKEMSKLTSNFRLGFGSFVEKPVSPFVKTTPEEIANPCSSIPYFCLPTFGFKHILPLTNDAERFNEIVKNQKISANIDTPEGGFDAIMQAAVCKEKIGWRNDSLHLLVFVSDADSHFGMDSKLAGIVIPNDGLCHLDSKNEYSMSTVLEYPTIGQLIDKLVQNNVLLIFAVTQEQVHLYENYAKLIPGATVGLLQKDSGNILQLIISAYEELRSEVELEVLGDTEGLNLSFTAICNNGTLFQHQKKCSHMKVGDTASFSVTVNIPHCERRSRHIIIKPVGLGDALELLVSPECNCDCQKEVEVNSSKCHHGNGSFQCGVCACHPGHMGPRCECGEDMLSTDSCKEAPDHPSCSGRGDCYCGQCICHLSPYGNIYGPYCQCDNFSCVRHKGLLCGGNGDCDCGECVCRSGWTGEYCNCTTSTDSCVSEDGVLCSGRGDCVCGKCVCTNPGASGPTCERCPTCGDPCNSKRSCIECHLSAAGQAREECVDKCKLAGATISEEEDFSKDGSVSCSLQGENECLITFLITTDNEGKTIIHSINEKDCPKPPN
row,Structure (SMILES),IC50
1,"CN(C)c1ccc(C(CC(=O)O)c2nc(CCCc3ccc4c(n3)NCCC4)cs2)cn1 (single isomer, unassigned) [Example 133, 3-(6-(dimethylamino)pyridin-3-yl)-3-(4-(3-(5,6,7,8-tetrahydro-1,8-naphthyridin-2-yl)propyl)thiazol-2-yl)propanoic acid]",86 nM
2,"CN(C)c1ccc(C(CC(=O)O)c2nc(CCCc3ccc4c(n3)NCCC4)cs2)cn1 (single isomer, unassigned) [Example 134, 3-(6-(dimethylamino)pyridin-3-yl)-3-(4-(3-(5,6,7,8-tetrahydro-1,8-naphthyridin-2-yl)propyl)thiazol-2-yl)propanoic acid]",1.8 nM
3,"CN(C)C(=O)c1ccc(C(CC(=O)O)c2nc(CCCc3ccc4c(n3)NCCC4)cs2)cc1F (single isomer, unassigned) [Example 135, 3-(4-(dimethylcarbamoyl)-3-fluorophenyl)-3-(4-(3-(5,6,7,8-tetrahydro-1,8-naphthyridin-2-yl)propyl)thiazol-2-yl)propanoic acid]",4.9 nM
4,"CN(C)C(=O)c1ccc(C(CC(=O)O)c2nc(CCCc3ccc4c(n3)NCCC4)cs2)cc1F (single isomer, unassigned) [Example 136, 3-(4-(dimethylcarbamoyl)-3-fluorophenyl)-3-(4-(3-(5,6,7,8-tetrahydro-1,8-naphthyridin-2-yl)propyl)thiazol-2-yl)propanoic acid]",12 nM
5,"CN(C)C(=O)c1ccc(C(CC(=O)O)c2nc(CCCc3ccc4c(n3)NCCC4)cs2)cc1 (single isomer, unassigned) [Example 137, 3-(4-(dimethylcarbamoyl)phenyl)-3-(4-(3-(5,6,7,8-tetrahydro-1,8-naphthyridin-2-yl)propyl)thiazol-2-yl)propanoic acid]",210 nM
6,"CN(C)C(=O)c1ccc(C(CC(=O)O)c2nc(CCCc3ccc4c(n3)NCCC4)cs2)cc1 (single isomer, unassigned) [Example 138, 3-(4-(dimethylcarbamoyl)phenyl)-3-(4-(3-(5,6,7,8-tetrahydro-1,8-naphthyridin-2-yl)propyl)thiazol-2-yl)propanoic acid]",4 nM
7,"CN(C)C(=O)c1cccc(C(CC(=O)O)c2nc(CCCc3ccc4c(n3)NCCC4)cs2)c1 (single isomer, unassigned) [Example 139, 3-(3-(dimethylcarbamoyl)phenyl)-3-(4-(3-(5,6,7,8-tetrahydro-1,8-naphthyridin-2-yl)propyl)thiazol-2-yl)propanoic acid]",34 nM
8,"CN(C)C(=O)c1cccc(C(CC(=O)O)c2nc(CCCc3ccc4c(n3)NCCC4)cs2)c1 (single isomer, unassigned) [Example 140, 3-(3-(dimethylcarbamoyl)phenyl)-3-(4-(3-(5,6,7,8-tetrahydro-1,8-naphthyridin-2-yl)propyl)thiazol-2-yl)propanoic acid]",3.7 nM
9,"COc1ccc(C(CC(=O)O)c2nc(CCCc3ccc4c(n3)NCCC4)cs2)cc1OC (single isomer, unassigned) [Example 141, 3-(3,4-dimethoxyphenyl)-3-(4-(3-(5,6,7,8-tetrahydro-1,8-naphthyridin-2-yl)propyl)thiazol-2-yl)propanoic acid]",2.9 nM
10,"COc1ccc(C(CC(=O)O)c2nc(CCCc3ccc4c(n3)NCCC4)cs2)cc1OC (single isomer, unassigned) [Example 142, 3-(3,4-dimethoxyphenyl)-3-(4-(3-(5,6,7,8-tetrahydro-1,8-naphthyridin-2-yl)propyl)thiazol-2-yl)propanoic acid]",37 nM
11,"COc1ncc(C(CC(=O)O)c2nc(CCCCc3ccc4c(n3)NCCC4)cs2)cn1 (single isomer, unassigned) [Example 143, 3-(2-Methoxypyrimidin-5-yl)-3-(4-(4-(5,6,7,8-tetrahydro-1,8-naphthyridin-2-yl)butyl)thiazol-2-yl)propanoic acid]",88 nM
12,"COc1ncc(C(CC(=O)O)c2nc(CCCCc3ccc4c(n3)NCCC4)cs2)cn1 (single isomer, unassigned) [Example 144, 3-(2-Methoxypyrimidin-5-yl)-3-(4-(4-(5,6,7,8-tetrahydro-1,8-naphthyridin-2-yl)butyl)thiazol-2-yl)propanoic acid]",7 nM
13,"COc1ncc(C(CC(=O)O)c2nc(CCCc3ccc4c(n3)NCCC4)cs2)cn1 (single isomer, unassigned) [Example 146, 3-(2-methoxypyrimidin-5-yl)-3-(4-(3-(5,6,7,8-tetrahydro-1,8-naphthyridin-2-yl)propyl)thiazol-2-yl)propanoic acid]",140 nM
14,"Cc1ncc(C(CC(=O)O)c2nc(CCCc3ccc4c(n3)NCCC4)cs2)cn1 (single isomer, unassigned) [Example 147, 3-(2-methylpyrimidin-5-yl)-3-(4-(3-(5,6,7,8-tetrahydro-1,8-naphthyridin-2-yl)propyl)thiazol-2-yl)propanoic acid]",1.9 nM
15,"Cc1ncc(C(CC(=O)O)c2nc(CCCc3ccc4c(n3)NCCC4)cs2)cn1 (single isomer, unassigned) [Example 148, 3-(2-methylpyrimidin-5-yl)-3-(4-(3-(5,6,7,8-tetrahydro-1,8-naphthyridin-2-yl)propyl)thiazol-2-yl)propanoic acid]",6 nM
16,"Cc1ncc(C(CC(=O)O)c2nc(CCCc3ccc4c(n3)NCCC4)cs2)cn1 (single isomer, unassigned) [Example 149, 3-(2-methylpyrimidin-5-yl)-3-(4-(3-(5,6,7,8-tetrahydro-1,8-naphthyridin-2-yl)propyl)thiazol-2-yl)propanoic acid]",7.2 nM
17,"Cc1cncc(C(CC(=O)O)c2nc(CCCc3ccc4c(n3)NCCC4)cs2)c1 (single isomer, unassigned) [Example 150, 3-(5-methylpyridin-3-yl)-3-(4-(3-(5,6,7,8-tetrahydro-1,8-naphthyridin-2-yl)propyl)thiazol-2-yl)propanoic acid]",87 nM
18,"Cc1cncc(C(CC(=O)O)c2nc(CCCc3ccc4c(n3)NCCC4)cs2)c1 (single isomer, unassigned) [Example 151, 3-(5-methylpyridin-3-yl)-3-(4-(3-(5,6,7,8-tetrahydro-1,8-naphthyridin-2-yl)propyl)thiazol-2-yl)propanoic acid]",2.6 nM
19,"COc1ccc(C(CC(=O)O)c2csc(CCCc3ccc4c(n3)NCCC4)n2)cc1F (single isomer, unassigned) [Example 152, 3-(3-fluoro-4-methoxyphenyl)-3-(2-(3-(5,6,7,8-tetrahydro-1,8-naphthyridin-2-yl)propyl)thiazol-4-yl)propanoic acid]",180 nM
20,"COc1ccc(C(CC(=O)O)c2nc(CCCC3CCc4cccnc4N3)cs2)cn1 (single isomer, unassigned) [Example 154, 3-(6-methoxypyridin-3-yl)-3-(4-(3-(1,2,3,4-tetrahydro-1,8-naphthyridin-2-yl)propyl)thiazol-2-yl)propanoic acid]",210 nM
21,"COc1ccc(C(CC(=O)O)c2nc(CCCC3CCc4cccnc4N3)cs2)cn1 (single isomer, unassigned) [Example 155, 3-(6-methoxypyridin-3-yl)-3-(4-(3-(1,2,3,4-tetrahydro-1,8-naphthyridin-2-yl)propyl)thiazol-2-yl)propanoic acid]",8.1 nM
22,"COc1ccc(C(CC(=O)O)c2nc(CCCC3CCc4cccnc4N3)cs2)cn1 (single isomer, unassigned) [Example 156, 3-(6-methoxypyridin-3-yl)-3-(4-(3-(1,2,3,4-tetrahydro-1,8-naphthyridin-2-yl)propyl)thiazol-2-yl)propanoic acid]",260 nM
23,"COc1ccc(C(CC(=O)O)c2nc(CCCC3CCc4cccnc4N3)cs2)cn1 (single isomer, unassigned) [Example 157, 3-(6-methoxypyridin-3-yl)-3-(4-(3-(1,2,3,4-tetrahydro-1,8-naphthyridin-2-yl)propyl)thiazol-2-yl)propanoic acid]",27 nM
24,"COc1ccc(C(CC(=O)O)c2nc(CCCC3CCc4cccnc4N3)cs2)cc1F (single isomer, unassigned) [Example 158, 3-(3-fluoro-4-methoxyphenyl)-3-(4-(3-(1,2,3,4-tetrahydro-1,8-naphthyridin-2-yl)propyl)thiazol-2-yl)propanoic acid]",7 nM
25,"COc1ccc(C(CC(=O)O)c2nc(CCCC3CCc4cccnc4N3)cs2)cc1F (single isomer, unassigned) [Example 159, 3-(3-fluoro-4-methoxyphenyl)-3-(4-(3-(1,2,3,4-tetrahydro-1,8-naphthyridin-2-yl)propyl)thiazol-2-yl)propanoic acid]",370 nM
26,"COc1ccc(C(CC(=O)O)c2nc(CCCC3CCc4cccnc4N3)cs2)cc1F (single isomer, unassigned) [Example 160, 3-(3-fluoro-4-methoxyphenyl)-3-(4-(3-(1,2,3,4-tetrahydro-1,8-naphthyridin-2-yl)propyl)thiazol-2-yl)propanoic acid]",195 nM
27,"COc1ccc(C(CC(=O)O)c2nc(CCCC3CCc4cccnc4N3)cs2)cc1F (single isomer, unassigned) [Example 161, 3-(3-fluoro-4-methoxyphenyl)-3-(4-(3-(1,2,3,4-tetrahydro-1,8-naphthyridin-2-yl)propyl)thiazol-2-yl)propanoic acid]",12 nM
28,"Cc1cc(C)n(C(CC(=O)O)c2nc(CCCc3ccc4c(n3)NCCC4)cs2)n1 (single isomer, unassigned) [Example 162, 3-(3,5-dimethyl-1H-pyrazol-1-yl)-3-(4-(3-(5,6,7,8-tetrahydro-1,8-naphthyridin-2-yl)propyl)thiazol-2-yl)propanoic acid]",71 nM
29,"Cc1cc(C)n(C(CC(=O)O)c2nc(CCCc3ccc4c(n3)NCCC4)cs2)n1 (single isomer, unassigned) [Example 163, 3-(3,5-dimethyl-1H-pyrazol-1-yl)-3-(4-(3-(5,6,7,8-tetrahydro-1,8-naphthyridin-2-yl)propyl)thiazol-2-yl)propanoic acid]",220 nM
